Where a name gives a salt, the structure may show the parent alone.
Assays:
[1] = tested on: Bacillus subtilis A.T.C.C. 6633; test: standard disc plate microbiological assay; type: cell-based; conditions: against the standard antibiotic base (1000 mcg/mg)
Excerpt: The assay is a standard disc plate assay using Difco Antibiotic Medium No. 5 and Bacillus subtilis A.T.C.C. 6633 as the test organism. The physical conditions of the test are substantially those described for neomycin (Grove and Randall), Assay Methods of Antibiotics published by Medical Encyclopedia Incorporated (1955). The assay is run against a standard preparation of Antibiotic G-418 having a defined potency of 1000 mcg/mg. […] The standard antibiotic sulfate salt assays about 750 mcg/mg. against the standard antibiotic base.

E. Histolytica = test: Oral activity against experimental cecal E. Histolytica infections in rats; type: in vivo, male Royal Hart rats; conditions: for A.D.I. (average degree of infection): scale 0 to 4, controls averaged 2.2
Excerpt: Table VII and Table VIII set forth in vivo test results which illustrate the antiprotozoal activity of Antibiotic G-418. The host for the tests were recently weaned male Royal Hart rats (3-4 weeks old) weighing about 50-70 g. The test procedure is a modification of one described by R. J. Schnitzer on pages 355-443 in Experimental Chemotherapy, Vol. 1, Academic Press, New York (1963).
*A.D.I. -- defined as the average degree of infection based upon gross
observations of pathological changes in the cecum and microscopic
observations of the number of amoebae found. These observations are
recorded on a scale of from zero to four, zero representing a
substantially normal cecum. Untreated but infected controls range from
about two to four. In the data set forth the controls averaged 2.2.

| SMILES | potency of standard antibiotic sulfate salt [1] | Parasitological Cure Negative/Total (E. Histolytica; oral 6.5 mg/kg/day, 1 day) | A.D.I. (average degree of infection) (E. Histolytica; oral 6.5 mg/kg/day, 1 day) | Parasitological Cure Negative/Total (E. Histolytica; oral 6.5 mg/kg/day, 3 days) | A.D.I. (average degree of infection) (E. Histolytica; oral 6.5 mg/kg/day, 3 days) | Parasitological Cure Negative/Total (E. Histolytica; oral 6.5 mg/kg/day, 6 days) | A.D.I. (average degree of infection) (E. Histolytica; oral 6.5 mg/kg/day, 6 days) | Parasitological Cure Negative/Total (E. Histolytica; oral 13 mg/kg/day, 6 days) | A.D.I. (average degree of infection) (E. Histolytica; oral 13 mg/kg/day, 6 days) | Parasitological Cure Negative/Total (E. Histolytica; oral 25 mg/kg/day, 6 days) | A.D.I. (average degree of infection) (E. Histolytica; oral 25 mg/kg/day, 6 days) |
| --- | --- | --- | --- | --- | --- | --- | --- | --- | --- | --- | --- |
| CN[C@@H]1[C@@H](O)[C@@H](O[C@@H]2[C@@H](O)[C@H](O[C@H]3O[C@H]([C@@H](C)O)[C@@H](O)[C@H](O)[C@H]3N)[C@@H](N)C[C@H]2N)OC[C@]1(C)O [standard antibiotic sulfate salt] | about 750 mcg/mg |  |  |  |  |  |  |  |  |  |  |
| Cc1ncc([N+](=O)[O-])n1CCO [Flagyl] |  | 0/4 | 1.5 | 0/3 | 1.7 | 1/4 | 0.8 | 2/6 | 0.8 | 1/5 | 0.8 |

Source: patent publication US3997403A, “Antibiotic G-418 and the production thereof” (Schering Corporation, priority 1975, dated 1976)
